“Also recorded” adds a separate entry of the source.
Legend:
[1] = test system: leukemic cobblestoning on pretreated OP9 stromal cells; assay: Stromal pretreatment screen on OP9 stroma; format: cell-based, murine; conditions: compound on OP9 stroma for 3 days, washed before LSC plating
Experimental: OP9 cells were plated as in the primary screen. 24 hours later compounds were added to the stromal cultures and the plates were incubated for three days. […] As before, the plates were imaged after 6 days of coculture, and the level of cobblestoning was quantified. Any inhibition of cobblestoning observed under these modified assay conditions would presumably be due to the activity of the compound on the niche, and would allow the analysis of cell non-cell-autonomous mechanisms of leukemia growth inhibition.

HSPCs = assay: Stromal pretreatment of primary MSC stroma, triple coculture, HSPCs; format: cell-based, murine; conditions: stroma pretreated three days, LSCs and HSPCs comingled
Experimental: In the context of primary MSC stroma (uncolored), both HSPCs (from actin-GFP mice (000329, Jackson Lab)) and LSC (dsRed+) populations were comingled together in a ratio of 2:1 within the same 384format wells. As in the stromal pretreatment screen with OP9 stroma, BRD7116 was added for three days to the stroma prior to the addition of the hematopoietic populations. 5 days after compound addition, wells were imaged in the red and green channels and total cells were counted using MetaXpress software from MDC.
This experiment was also performed in the context of primary MSC stroma. Both HSPCs and LSC populations were comingled together in the same wells, as a “triple” coculture.

[2] = test system: leukemia cells on OP9 cells; assay: Coculture pulse treatment experiment; format: cell-based, murine; conditions: 24 hours at Day 1 or Day 4 post LSC plating
Experimental: 13,500 GFP+ OP9 cells were plated onto gelatin coated, 96 well black, clear bottom plates (3904, Corning). 24 hours later, 2,000 sorted leukemia cells were plated onto the monolayer. Compounds (5 μM) were added either 1 (early pulse) or 4 (late pulse) days later at the same 5 μM working concentration of main coculture screen. In both cases, compounds were removed after 24 hours of treatment, the wells were washed, and fresh media without compound was added. The plates were imaged and analyzed 6 days after leukemia cell plating. The viability of the stroma was assessed using stromal monolayers grown alone and treated in parallel, with the same readout described in the stromal toxicity screen above.

[3] = test system: primary CD34+ cells from normal human cord blood; assay: Human CD34+ CAFC assay, normal cells; conditions: 1.25 μM to 10 μM, 18 hours exposure
Experimental: Samples were centrifuged over Ficoll-Paque PLUS (GE Heathcare) step gradient (2000×g for 30 min in 50 ml tubes) to obtain mononuclear cells and then CD34^+ cells were selected with immunomagnetic beads (MACS Cell Separation, Miltenyi Biotec, Auburn, Calif.), except in one case, NPM1 mutation, which was CD34^− by flow cytometry and mononuclear cells were used. 50,000 cells were placed into 12.5 cm^2 flasks (Becton Dickinson Labware, Franklin Lakes, N.J.) in co-culture with the MS-5 mouse bone marrow-derived stromal cell line (kindly provided by Dr. Itoh, Dept. of Biology, Niigata University, Japan) and DMSO control and the number of final cobblestones was later read. The number of cells needed to form one cobblestone was then placed in triplicate for each sample with each drug at serial drug dilutions from 10 μM to 0.63 μM as well as with DMSO 0.5% for control purposes and incubated overnight with Iscove's modified Dulbecco's medium (IMDM, in house media preparation laboratory)+20% fetal calf serum (FCS, Atlanta Biologicals, Lawrenceville, Ga.) with glutamine (2 mM/ml, in house media preparation laboratory), monothioglycerol (MTG, 10 nM/ml, Sigma Cell Culture, St. Louis Mo.), c-Kit ligand (20 ng/ml, Amgen, Thousand Oaks, Calif.), Flt ligand (20 ng/ml, Imclone, Bridgewater, N.J.), TPO (20 ng/ml, Amgen) and IL-3 (20 ng/ml, Amgen). […]
The cells were treated with compound or DMSO carrier control at four doses (ranging from 1.25 μM to 10 μM) in triplicate for 18 hours, washed thoroughly, then plated onto human stromal MS-5 monolayers (Itoh, K., Tezuka, H., Sakoda, H., Konno, M., Nagata, K., Uchiyama, T., Uchino, H., and Mori, K. J. (1989). Exp Hematol 17, 145-153.) and maintained in coculture with one subsequent half media change. After 5 weeks (2 weeks for the FLT3-ITD sample (Moore, M. A., Dorn, D. C., Schuring a, J. J., Chung, K. Y., and Morrone, G. (2007). Exp Hematol 35, 105-116.)), cobblestone formation was determined, and dose-response curves against the 7 cell types were generated for each compound.

Structure (SMILES) | leukemic cobblestoning after stromal pretreatment [1] | numbers of comingled HSPCs on pretreated MSC stroma (HSPCs) | leukemia cells at Day 6 endpoint after 24 hour pulse [2] | leukemia cells at Day 6 endpoint after 24 hour pulse ([2]; listed as lovastatin) | toxicity against normal primary CD34+ cells (human CAFC) [3]
CC1(C)C(C(=O)Nc2ccc(S(=O)(=O)c3ccc(NC(=O)C4C(C)(C)C4(C)C)cc3)cc2)C1(C)C [BRD7116] | decreased leukemic cobblestoning; also recorded: partially recapitulated the leukemia cobblestone inhibition | a decrease in the numbers of comingled HSPCs was not observed |  |  | 
CCC(C)C(=O)OC1CC(C)C=C2C=CC(C)C(CCC(O)CC(O)CC(=O)O)C21 (centres unmarked) [Lovastatic acid] |  |  | strong inhibition of leukemia cells | near-complete loss of leukemia cells | neither compound showed toxicity
